Experimental findings from US20100119599A1 (ARCHER PHARMACEUTICALS, INC., priority 2006, published 2010) are described below.

For one assay, the system named is Aβ1-42. As to the kind of experiment: Measurement of Aβ1-42 in culture medium of 7W WT APP751 CHO cells by ELISA. Type of assay: cell-based, Chinese hamster. Particulars: for Aβ1-42 (% of control): CHO cells that overexpress APP751, zero = below the detection limit of the assay; for activity at 5 µM: Cricetulus griseus, Table 1, 5 μM test compound, CHO cells stably transfected with human APP751, culture medium, ELISA, control DMSO, 0 = no detectable amount, read-out: Aβ1-42 (% of control).

A further assay deals with Aβ1-40. Kind of assay: Measurement of Aβ1-40 in culture medium of 7W WT APP751 CHO cells by ELISA. Type of assay: cell-based, Chinese hamster. Particulars: for Aβ1-40 (% of control): CHO cells that overexpress APP751, zero = below the detection limit of the assay; for activity at 5 µM: Cricetulus griseus, Table 1, 5 μM test compound, CHO cells stably transfected with human APP751, culture medium, ELISA, control DMSO, 0 = no detectable amount.
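Note: 5 µM test compound but RI-coded compounds at 10 µM for 24 hours.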

Take `CCOc1ccc(NC(=O)CSC2=C(C#N)C(c3cccs3)C(C(=O)Nc3ccccc3C)=C(C)N2)cc1` (stereo not shown) [ST050838, 2-{3-cyano-6-methyl-5-[N-(2-methylphenyl)carbamoyl]-4-(2-thienyl)(2-1,4-dihydropyridylthio)}-N-(4-ethoxyphenyl)acetamide]: the “Aβ1-42 (% of control)” value with Aβ1-42 is 56.66 % of control. The “Aβ1-40 (% of control)” value in the assay with Aβ1-40 is recorded as 70.76 % of control.

With `CC1=C(C(=O)OCCc2ccccc2)C(c2ccc(C)cc2)C2=C(CC(C)(C)CC2=O)N1` (stereo not shown) [ST015099, 2-phenylethyl 2,7,7-trimethyl-4-(4-methylphenyl)-5-oxo-1,4,6,7,8-pentahydroquinoline-3-carboxylate], the activity at 5 µM with Aβ1-42 was 33.8%; with Aβ1-40, 14.8%.

On to `CCOc1cc(/C=c2\sc3n(c2=O)C(N)=C(C#N)C(c2ccc(O)c(OCC)c2)C=3C#N)ccc1O` (stereo not shown) [ST025033, 5-amino-7-(3-ethoxy-4-hydroxyphenyl)-2-[(3-ethoxy-4-hydroxyphenyl)methylene]-3-oxo-4,7-dihydro-1,3-thiazolidino[3,2-a]pyridine-6,8-dicarbonitrile], for which the “Aβ1-42 (% of control)” value with Aβ1-42 is 57.6 % of control. Besides, the “Aβ1-40 (% of control)” value in the assay with Aβ1-40 was 53.66 % of control.

For `COc1ccc(CCNC(=O)CSC2=C(C#N)C(c3cccs3)C(C(=O)Nc3ccccc3)=C(C)N2)cc1OC` (stereo not shown) [RI_15], in the assay on Aβ1-42, the “Aβ1-42 (% of control)” value is recorded as 41.2 % of control. In the assay with Aβ1-40, the “Aβ1-40 (% of control)” value is on record as 74.9 % of control.

With `CCOCCOC(=O)C1=C(C)NC2=C(C(=O)CC(c3ccccc3)C2)C1c1ccc(Br)cc1` (stereo not shown) [ST017313, 2-ethoxyethyl 4-(4-bromophenyl)-2-methyl-5-oxo-7-phenyl-1,4,6,7,8-pentahydroquinoline-3-carboxylate], the activity at 5 µM was 85.4% with Aβ1-42 and 44.2% in the assay on Aβ1-40.

`CC1=C(C(=O)OCCOc2ccccc2)C(c2cccc(Oc3ccccc3)c2)C2=C(CC(C)(C)CC2=O)N1` (stereo not shown) [ST015055, 2-phenoxyethyl 2,7,7-trimethyl-5-oxo-4-(3-phenoxyphenyl)-1,4,6,7,8-pentahydroquinoline-3-carboxylate]: the activity at 5 µM stood at 78.2% in the assay with Aβ1-42 and 13.6% with Aβ1-40.

For the compound `CCN(CC)c1ccc(C2C(C(=O)OC3CCCC3)=C(C)NC3=C2C(=O)CC(C)(C)C3)cc1` (stereo not shown) [ST013083, cyclopentyl 4-[4-(diethylamino)phenyl]-2,7,7-trimethyl-5-oxo-1,4,6,7,8-pentahydroquinoline-3-carboxylate], the activity at 5 µM in the assay on Aβ1-42 was found to be 91.6%; in the assay with Aβ1-40, 0%.

Turning to `CC(C)COc1cccc(/C=c2\sc3n(c2=O)C(N)=C(C#N)C(c2cccc(OCC(C)C)c2)C=3C#N)c1` (stereo not shown) [ST025023, 5-amino-7-[3-(2-methylpropoxy)phenyl]-2-{[3-(2-methylpropoxy)phenyl]methylene}-3-oxo-4,7-dihydro-1,3-thiazolidino[3,2-a]pyridine-6,8-dicarbonitrile], the “Aβ1-42 (% of control)” value in the assay on Aβ1-42 is 85.29 % of control. The “Aβ1-40 (% of control)” value in the assay with Aβ1-40 is listed as 68.13 % of control.

For the compound `COC(=O)C1=C(C)NC(C)=C(C(=O)OC)C1c1ccc(Br)cc1` [ST208633, methyl 4-(4-bromophenyl)-5-(methoxycarbonyl)-2,6-dimethyl-1,4-dihydropyridine-3-carboxylate], in the assay on Aβ1-42, the “Aβ1-42 (% of control)” value was 0 % of control. For the same compound, the “Aβ1-40 (% of control)” value with Aβ1-40 is given as 9.12 % of control.

With `CCOc1ccccc1C1C(C(=O)OC2CCCCC2)=C(C)NC2=C1C(=O)CC(C)(C)C2` (stereo not shown) [ST017304, cyclohexyl 4-(2-ethoxyphenyl)-2,7,7-trimethyl-5-oxo-1,4,6,7,8-pentahydroquinoline-3-carboxylate], the activity at 5 µM in the assay on Aβ1-42 worked out at 57.2%; in the assay on Aβ1-40, 52%.

Consider `CCOC(=O)C1=C(N)n2c(s/c(=C\c3ccccc3OC)c2=O)=C(S(=O)(=O)c2ccccc2)C1c1ccccc1OC` (stereo not shown) [ST011325, ethyl 5-amino-7-(2-methoxyphenyl)-2-[(2-methoxyphenyl)methylene[-3-oxo-8-(phenylsulfonyl)-4,7-dihydro-1,3-thiazolidino[3,2-a]pyridine-6-carboxylate], for which the “Aβ1-42 (% of control)” value with Aβ1-42 is on record as 99 % of control. In the assay with Aβ1-40, the “Aβ1-40 (% of control)” value is 62.35 % of control.
